The values that follow are results of earlier work, collected in patent US6126939A, “Anti-inflammatory dipeptide and pharmaceutical composition thereof” (Yeda Research and Development Co. Ltd., priority 1997, dated 2000).

The test system of one data set is blood sugar levels. To be noted: rats, i.p. 100 mg/kg.
The conditions of data set [1]: in vitro test assay.
In a further data set the test system is macrophage migration. To be noted: literature.
The next data set deals with IL-1. To be noted: literature.

For Asn-Arg-NH2, the “hypoglycemic activity (lowering of blood sugar levels)” value in the data set with blood sugar levels was “having hypoglycemic activity”. Further, the antilipolytic activity result in data set [1] is given as “have antilipolytic activity”.
Glu-Arg-OMe: in the data set with blood sugar levels, the “hypoglycemic activity (lowering of blood sugar levels)” value was “having hypoglycemic activity”. Moreover, the antilipolytic activity result in data set [1] was “have antilipolytic activity”.
`COc1ccc2c(C(=S)N(C)CC(=O)O)cccc2c1C(F)(F)F` [Tolrestat]: the macrophage migration result in the data set with macrophage migration is “Another MIF”.
Turning to Gln-Arg-NH2, the “hypoglycemic activity (lowering of blood sugar levels)” value with blood sugar levels is recorded as “having hypoglycemic activity”. In addition, the antilipolytic activity result in data set [1] is listed as “have antilipolytic activity”.
On to Glu-Arg-NH2, for which, in the data set with blood sugar levels, the “hypoglycemic activity (lowering of blood sugar levels)” value is “did not significantly lower blood sugar levels”. For the same molecule, the antilipolytic activity result in data set [1] is reported as “have antilipolytic activity”.
Turning to Thr-Lys-Pro [TKP], the “secretion of IL-1 macrophages” value in the data set on IL-1 is reported as “reduce secretion of IL-1”. For the same molecule, the macrophage migration result with macrophage migration is “inhibit macrophage migration”.
For the molecule Gln-Arg-OMe, in the data set with blood sugar levels, the “hypoglycemic activity (lowering of blood sugar levels)” value is recorded as “having hypoglycemic activity”. The antilipolytic activity entry in data set [1] was “no significant antilipolytic activity”.
Regarding Arg-Asn-NH2, the “hypoglycemic activity (lowering of blood sugar levels)” value in the data set on blood sugar levels is on record as “having hypoglycemic activity”. Also, the antilipolytic activity entry in data set [1] is given as “have antilipolytic activity”.
Arg-Asn: the “hypoglycemic activity (lowering of blood sugar levels)” value in the data set with blood sugar levels is given as “having hypoglycemic activity”. The antilipolytic activity entry in data set [1] is “no significant antilipolytic activity”.
